Experimental data from US4927831A, “Spiro-isoquinoline-pyrrolidine tetrones and analogs thereof useful as aldose reductase inhibitors” (American Home Products, priority 1989, dated 1990).
Like-named read-outs stand apart in the source and are kept apart here. Each block holds one compound with its values, some of them ahead of it.

Assays:
[1] = target: T1, aldose reductase (Bos taurus, UniProt P16116); assay: in vitro aldose reductase inhibition (modified Hayman and Kinoshita; enzyme from bovine lens); assay type: biochemical; conditions: read-out: % Inhibition IN VITRO
T1 construct: preparation of the enzyme from bovine lens; from tissue; host or cells: bovine lens
Procedure: Only two minor reagent changes were made: (a) The rinsing mixture was an aqueous 5% (w/v) trichloroacetic acid solution and (b) the stock solution was prepared by dissolving 25 mg of dulcitol in 100 ml of an aqueous trichloroacetic acid solution. [N.B.: For each experiment the average value found in the tissue from rats fed the glucose diet was subtracted from the individual values found in the corresponding tissue in galactose-fed rats to obtain the amount of polyol accumulated.] […] In the present case the procedure of Hayman and Kinoshita was modified in that the final chromatography step was omitted in the preparation of the enzyme from bovine lens. […] The figures under L and N represent the percentage decrease of dulcitol accumulation in the tissues of the lens and sciatic nerve, respectively, for treated rats as compared to untreated rats.

[2] = system: dulcitol accumulation in the lens; assay: % lowering of dulcitol accumulation in lens (L) of galactosemic rats; assay type: in vivo, Sprague-Dawley; set-up: key: NS: statistically nonsignificant change; conditions: 4 days
Excerpt: (§1) The aldose reductase inhibiting property of the compounds of this invention and the utilization of the compounds in preventing, diminishing and alleviating diabetic complications are demonstrable in experiments using galactosemic rats, see Dvornik et al., Science, 182, 1146 (1973). Such experiments are exemplified hereinbelow after the listing of the following general comments pertaining to these experiments:
(§2) (a) Four or more groups of six male rats, 50-70 g, Sprague-Dawley strain, were used. The first group, the control group, was fed a mixture of laboratory chow (rodent Laboratory Chow, Purina) and glucose at 20% (w/w %) concentration. An untreated galactosemic group was fed a similar diet in which galactose was substituted for glucose. The third group was fed a diet prepared by mixing a given amount of the test compound with the galactose containing diet. The concentration of galactose in the diet of the treated groups was the same as that for the untreated galactosemic group.
(§3) (b) After four days, the animals were killed by euthanization. Both the lens and sciatic nerve were removed, weighed and stored frozen for polyol determination.
(§4) (c) The polyol determination was performed by a modification of the procedure of M. Kraml and L. Cosyns, Clin. Biochem., 2,373 (1969). Only two minor reagent changes were made: (a) The rinsing mixture was an aqueous 5% (w/v) trichloroacetic acid solution and (b) the stock solution was prepared by dissolving 25 mg of dulcitol in 100 ml of an aqueous trichloroacetic acid solution. [N.B.: For each experiment the average value found in the tissue from rats fed the glucose diet was subtracted from the individual values found in the corresponding tissue in galactose-fed rats to obtain the amount of polyol accumulated.] The aldose reductase inhibiting effects of the compounds of formula (I) were also tested by employing an in vitro testing procedure similar to that described by S. Hayman and J.H. Kinoshita, J. Biol. Chem., 240,877 (1965). In the present case the procedure of Hayman and Kinoshita was modified in that the final chromatography step was omitted in the preparation of the enzyme from bovine lens.
(§5) The figures under L and N represent the percentage decrease of dulcitol accumulation in the tissues of the lens and sciatic nerve, respectively, for treated rats as compared to untreated rats.

[3] = system: dulcitol accumulation in the sciatic nerve; assay: % lowering of dulcitol accumulation in sciatic nerve (N) of galactosemic rats; assay type: in vivo, Sprague-Dawley; set-up: key: NS: statistically nonsignificant change; conditions: 4 days
Excerpt: as §1, §2, §3, §4, §5

Compound: O=C1C[C@]2(C(=O)N1)C(=O)N(Cc1ccc(Br)cc1F)C(=O)c1ccc(F)cc12 [(S)-(-)-[2-[(4-Bromo-2-fluorophenyl)methyl]-6-fluoro]spiro[isoquinoline-4(1H),3'-pyrrolidine]-1,2',3,5'(2H)-tetrone]
inhibition at 0.04 µM [1]: 29%
inhibition at 0.1 µM [1]: 46%
inhibition at 1 µM [1]: 97%
inhibition at 10 µM [1]: 98%
% Lowering Dulcitol Accumulation IN VIVO, L (lens) ([2]; 0.4 mg/kg in diet): NS
% Lowering Dulcitol Accumulation IN VIVO, L (lens) ([2]; 0.8 mg/kg in diet): 21%
% Lowering Dulcitol Accumulation IN VIVO, N (sciatic nerve) ([3]; 0.4 mg/kg in diet): 40%
% Lowering Dulcitol Accumulation IN VIVO, N (sciatic nerve) ([3]; 0.8 mg/kg in diet): 70%

inhibition at 0.04 µM ([1]; 4 × 10^-8 M): 34%
inhibition at 10 µM ([1]; 10^-5 M): 95%
inhibition at 1 µM ([1]; 10^-6 M): 92%
inhibition at 0.1 µM ([1]; 10^-7 M): 61%
Compound: CN1C(=O)c2cc(Cl)ccc2C2(CC(=O)NC2=O)C1=O (stereo not shown) [H 7-Cl CH3, 7-Chloro-2-methylspiro[isoquinoline-4(1H)3'-pyrrolidine]-1,2',3,5'(2H)-tetrone]
% Lowering Dulcitol Accumulation IN VIVO, L (lens) ([2]; 3.0 mg/kg in diet): 14%
% Lowering Dulcitol Accumulation IN VIVO, N (sciatic nerve) ([3]; 3.0 mg/kg in diet): 21%

Compound: CCCN1C(=O)c2ccccc2C2(CC(=O)NC2=O)C1=O (stereo not shown) [H H (CH2)2 CH3, 2-Propylspiro[isoquinoline-4(1H),3'-pyrrolidine]-1,2',3,5'(2H)-tetrone]
inhibition at 0.04 µM ([1]; 4 × 10^-8 M): 8%
inhibition at 1 µM ([1]; 10^-6 M): 62%
inhibition at 0.1 µM ([1]; 10^-7 M): 19%
inhibition at 10 µM [1]: 94%
% Lowering Dulcitol Accumulation IN VIVO, L (lens) ([2]; 11 mg/kg in diet): NS
% Lowering Dulcitol Accumulation IN VIVO, N (sciatic nerve) ([3]; 11 mg/kg in diet): NS

Compound: CCCCN1C(=O)c2ccccc2C2(CC(=O)NC2=O)C1=O (stereo not shown) [H H (CH2)3 CH3, 2-Butylspiro[isoquinoline-4(1H),3'-pyrrolidine]-1,2',3,5'(2H)-tetrone]
inhibition at 0.04 µM ([1]; 4 × 10^-8 M): 19%
inhibition at 10 µM ([1]; 10^-5 M): 99%
inhibition at 0.1 µM ([1]; 10^-7 M): 17%
inhibition at 1 µM [1]: 86%
% Lowering Dulcitol Accumulation IN VIVO, L (lens) ([2]; 10.0 mg/kg in diet): NS
% Lowering Dulcitol Accumulation IN VIVO, N (sciatic nerve) ([3]; 10.0 mg/kg in diet): NS

Compound: CCN1C(=O)c2ccccc2C2(CC(=O)NC2=O)C1=O (stereo not shown) [H H CH2 CH3, 2-Ethylspiro[isoquinoline-4(1H),3'-pyrrolidine]-1,2',3,5'(2H)-tetrone]
inhibition at 0.04 µM ([1]; 4 × 10^-8 M): 17%
inhibition at 1 µM ([1]; 10^-6 M): 76%
inhibition at 0.1 µM ([1]; 10^-7 M): 27%
inhibition at 10 µM [1]: 96%
% Lowering Dulcitol Accumulation IN VIVO, L (lens) ([2]; 11 mg/kg in diet): NS
% Lowering Dulcitol Accumulation IN VIVO, N (sciatic nerve) ([3]; 11 mg/kg in diet): NS

Compound: CN1C(=O)c2ccccc2C2(CC(=O)NC2=O)C1=O (stereo not shown) [H H CH3, 2-Methylspiro[isoquinoline-4(1H),3'-pyrrolidine]-1,2',3,5'(2H)-tetrone]
inhibition at 10 µM ([1]; 10^-5 M): 95%
inhibition at 1 µM ([1]; 10^-6 M): 91%
inhibition at 0.1 µM ([1]; 10^-7 M): 63%
inhibition at 0.04 µM [1]: 38%
% Lowering Dulcitol Accumulation IN VIVO, L (lens) ([2]; 1.0 mg/kg in diet): 15.0%
% Lowering Dulcitol Accumulation IN VIVO, L (lens) ([2]; 3.0 mg/kg in diet): 43.0%
% Lowering Dulcitol Accumulation IN VIVO, L (lens) ([2]; 10.0 mg/kg in diet): 62.0%
% Lowering Dulcitol Accumulation IN VIVO, L (lens) ([2]; 43.0 mg/kg in diet): 86.0%
% Lowering Dulcitol Accumulation IN VIVO, N (sciatic nerve) ([3]; 1.0 mg/kg in diet): 37.0%
% Lowering Dulcitol Accumulation IN VIVO, N (sciatic nerve) ([3]; 3.0 mg/kg in diet): 66.0%
% Lowering Dulcitol Accumulation IN VIVO, N (sciatic nerve) ([3]; 10.0 mg/kg in diet): 79.0%
% Lowering Dulcitol Accumulation IN VIVO, N (sciatic nerve) ([3]; 43.0 mg/kg in diet): 89.0%

inhibition at 0.04 µM ([1]; 4 × 10^-8 M): 44%
inhibition at 10 µM ([1]; 10^-5 M): 98%
inhibition at 1 µM ([1]; 10^-6 M): 98%
inhibition at 0.1 µM ([1]; 10^-7 M): 92%
Compound: O=C1CC2(C(=O)N1)C(=O)N(Cc1ccc(Br)cc1F)C(=O)c1cccc(F)c12 (stereo not shown) [[2-[(4-Bromo-2-fluorophenyl)methyl]-5-fluoro]spiro[isoquinoline-4(1H),3'-pyrrolidine]-1,2',3,5'(2H)-tetrone]
% Lowering Dulcitol Accumulation IN VIVO, L (lens) ([2]; 0.5 mg/kg in diet): 14.2%
% Lowering Dulcitol Accumulation IN VIVO, L (lens) ([2]; 1.0 mg/kg in diet): 23.9%
% Lowering Dulcitol Accumulation IN VIVO, N (sciatic nerve) ([3]; 0.5 mg/kg in diet): 52.5%
% Lowering Dulcitol Accumulation IN VIVO, N (sciatic nerve) ([3]; 1.0 mg/kg in diet): 77.0%
